Measurements reported in patent US20260256770A1, “COMPOSITIONS FOR AND METHODS OF TREATING HEREDITARY AORTOPATHIES” (Duke University, priority 2021, published 2026).
Entries after “also recorded” stand apart in the source; their conditions may differ.

Legend:
129S MFS mice = conditions: 129S background, Mmp17/EGFR/p38MAPK/ERK effects; cited from earlier work
MFS mice = conditions: cited from earlier work
MFS patients = conditions: clinical; cited from earlier work
[1] = test system: accelerated MFS (aMFS) mice; conditions: aMFS aneurysms generated with exogenous angiotensin II; cited from earlier work
TRPC4 = target: T1, TRPC4 (Mus musculus, UniProt Q9QUQ5); conditions: ML204 as reference for projected binding affinity of candidate inhibitors; cited from earlier work
T1 construct: expressed in transfected cells; host or cells: HEK293
T1 sequence (Q9QUQ5 1-890 isoform Q9QUQ5-2): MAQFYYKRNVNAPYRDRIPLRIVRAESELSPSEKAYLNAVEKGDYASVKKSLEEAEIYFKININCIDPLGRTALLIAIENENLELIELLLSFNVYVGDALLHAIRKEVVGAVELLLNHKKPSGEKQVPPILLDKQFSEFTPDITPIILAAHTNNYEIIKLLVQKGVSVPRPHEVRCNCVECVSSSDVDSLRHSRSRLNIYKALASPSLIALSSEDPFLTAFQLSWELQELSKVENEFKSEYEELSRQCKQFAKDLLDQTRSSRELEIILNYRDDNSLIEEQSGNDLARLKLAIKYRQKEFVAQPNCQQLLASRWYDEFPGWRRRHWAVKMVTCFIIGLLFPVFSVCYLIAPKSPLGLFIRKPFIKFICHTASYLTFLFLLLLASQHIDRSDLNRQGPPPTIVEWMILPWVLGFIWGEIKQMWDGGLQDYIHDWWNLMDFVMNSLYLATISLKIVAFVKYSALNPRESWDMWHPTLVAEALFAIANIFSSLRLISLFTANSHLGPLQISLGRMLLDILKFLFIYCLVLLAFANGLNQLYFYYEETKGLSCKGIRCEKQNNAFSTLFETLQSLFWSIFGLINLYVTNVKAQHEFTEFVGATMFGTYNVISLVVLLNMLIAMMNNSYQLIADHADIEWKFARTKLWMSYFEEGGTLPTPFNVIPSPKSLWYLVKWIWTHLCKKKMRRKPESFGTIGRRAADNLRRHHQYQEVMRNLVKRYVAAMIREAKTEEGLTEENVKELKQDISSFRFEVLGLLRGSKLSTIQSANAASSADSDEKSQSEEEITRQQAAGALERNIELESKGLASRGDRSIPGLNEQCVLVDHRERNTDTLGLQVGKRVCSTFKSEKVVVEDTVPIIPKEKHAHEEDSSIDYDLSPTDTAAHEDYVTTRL

FBN1 mutant MFS mouse [2] = test: Accelerated MFS model: osmotically delivered angiotensin II infusion in FBN1 mutant MFS mouse; type: in vivo
Source text: (§1) The Examples provided infra use a novel murine MFS model of accelerated aortic aneurysm formation and cardiomyopathy. This MFS uses two well-characterized in vivo systems for studying aortopathy and cardiomyopathy, namely, the FBN1 mutant MFS mouse and osmotically delivered angiotensin II infusion. In this accelderated model, significant aortic aneurysms were observed as early as 10 days after angiotensin II pump implantation. […] Overwhelmingly, these deaths were a result of ascending aortic aneurysm rupture or dissection. […] Similarly, the accelerated MFS model described and used herein produced a dilated cardiomyopathy as early as 14 days after angiotensin II minipump installation, as determined by echocardiographic measurements of end-diastolic volume and ejection fraction, heart mass-to-body weight ratios, and hematoxylin and eosin tissue staining patterns consistent with the diagnosis. After 14 days of pump installation, 60% of surviving angiotensin II-infused MFS mice met a defined echocardiographic criteria for dilated cardiomyopathy.
(§2) To better understand these clinical differences, a MFS mouse model was generated to facilitate high throughput therapeutic screening. Using exogenous angiotensin II in MFS mice, ascending aortic aneurysms can be generated in 2 weeks instead of 6-9 months (Cavanaugh N B, et al. (2017) Ann Thorac Surg. 104:657-665). […] TRPC4 antagonists therefore represent an opportunity to replace surgery in MFS aortopathy.

FBN1 mutant MFS mouse [3] = conditions: instead of 6-9 months in MFS mice; cited from earlier work
[4] = Accelerated MFS model: osmotically delivered angiotensin II infusion in FBN1 mutant MFS mouse; type: in vivo; conditions: angiotensin II-infused wild-type mice over the treatment period
Source text: as §1, §2

C#Cc1cccc(Nc2ncnc3cc(OCCOC)c(OCCOC)cc23)c1 [Erolotinib]
aggressive MFS phenotype (129S MFS mice): rescue the aggressive MFS phenotype

CCCCc1nc(Cl)c(CO)n1Cc1ccc(-c2ccccc2-c2nn[nH]n2)cc1 [Losartan]
aneurysm growth (MFS mice; MFS mice started on therapy after aneurysms have formed / later in life): only attenuates aneurysm growth; also recorded: aneurysms continue to grow albeit at a slower rate; also recorded: had less of an effect
aneurysm formation / development (MFS mice; MFS mice treated prior to aneurysm development / at an early age): blocked aneurysm formation; also recorded: blocks aneurysm development; also recorded: did not develop aneurysms
aortic diameter growth (MFS mice; estimate used for power calculation, 0.1 mm standard deviation): 0.4 mm
aneurysm progression (MFS patients): only slowed aneurysm progression
number of patients who ultimately required surgery (MFS patients): did not affect
response of aneurysms to therapy [1]: only partially respond

Cc1cc(N2CCCCC2)nc2ccccc12 [ML204, 4-Methyl-2-(piperidin-1-yl) quinoline]
IC50 (TRPC4): 0.96 to 2.6 µM

angiotensin II (DRVYIHPF; Angiotensin-2; UniProt P11859 25-32, looked up) [osmotically delivered exogenous angiotensin II used to accelerate aneurysm formation in MFS mice]
deaths of treatment group (FBN1 mutant MFS mouse [2]; at 14 days after implant): one third
deaths of treatment group (FBN1 mutant MFS mouse [2]; at 28 days after implant): more than half

angiotensin II [osmotically delivered exogenous angiotensin II used to accelerate aneurysm formation in MFS mice]
time to generate ascending aortic aneurysms (FBN1 mutant MFS mouse [3]): 2 weeks
aneurysm formation [4]: did not form aneurysms
time to significant aortic aneurysms after pump implantation (FBN1 mutant MFS mouse [2]; MFS mice): ≥ 10 days
time to dilated cardiomyopathy after minipump installation (FBN1 mutant MFS mouse [2]; MFS mice, echocardiography): ≥ 14 days
surviving mice meeting echocardiographic criteria for dilated cardiomyopathy (FBN1 mutant MFS mouse [2]; after 14 days of pump installation): 60%
blood pressures (FBN1 mutant MFS mouse [2]; treatment group): not elevated
